From patent publication US20230149507A1, “TREATMENT OF ALT CANCERS” (INSTITUTO DE MEDICINA MOLECULAR JOÃO LOBO ANTUNES, priority 2019, published 2023)

Legend:
[1] = test system: U2OS and HeLa cells; assay: Indirect IF with anti-BLM and anti-TRF2 antibodies, camptothecin treatment; format: cell-based, human
From the text: HeLa cervical cancer, HT1080 fibrosarcoma, and HEK293 embryonic kidney cells were purchased from ATCC. U2OS osteosarcoma cells were a kind gift from M. Lopes (IMCR, Zurich, Switzerland). HuO9, Saos2 and HOS osteosarcoma cells were a kind gift from B. Fuchs (Balgrist University Hospital, Zurich, Switzerland). WI-38 VA13 in vitro SV40-transformed lung fibroblasts were a kind gift from A. Londoño-Vallejo (CNRS, Paris, France). SKNAS neuroblastoma cells were a kind gift from O. Shakhova (University Hospital Zurich, Switzerland). HeLa, HT1080, HEK293, U2OS, and WI-38 VA13 cells were cultured in high glucose DMEM, GlutaMAX (Thermo Fisher Scientific) supplemented with 10% tetracycline-free fetal bovine serum (Pan BioTech) and 100 U/ml penicillin-streptomycin (Thermo Fisher Scientific). HuO9, Saos2, HOS and SKNAS cells were cultured in high glucose DMEM/F12, GlutaMAX (Thermo Fisher Scientific), supplemented with 10% tetracycline-free fetal bovine serum (Pan BioTech), 100 U/ml penicillin-streptomycin (Thermo Fisher Scientific) and non-essential amino acids (Thermo Fisher Scientific). Mycoplasma contaminations were tested using the VenorGeM Mycoplasma PCR Detection Kit (Minerva Biolabs) according to the manufacturer's instructions. […]

[2] = test system: U-2 OS cells; assay: Terminal restriction fragment (TRF) analysis after FANCM siRNA; format: cell-based, human; conditions: FANCM depletion, siRNA 30 nM
From the text: (§1) (a) Representative images of telomere (green) and γ-H2AX (red) colocalizations on metaphase spreads (meta-TIFs) in U-2 OS cells with or without FANCM depletion (left panel). Meta-TIFs are indicated by white arrows. Scale bars are 5 μm. Quantitation of TIFs (right panel). Scatterplot bars represent the mean±SEM. Out of 3 experiments, n≥81 metaphases scored per treatment, **p<0.005, Mann-Whitney test. (b) Native and denatured TRF analysis of U-2 OS cells with or without FANCM depletion. Colored arrows correspond to telomeric DNA species depicted in panel c. (c) Schematic of migration patterns for indicated telomeric species separated by two-dimensional gel electrophoresis (top panel). Two-dimensional TRF analysis of U-2 OS cells with or without FANCM depletion, hybridized under native and denatured conditions to detect the telomeric C-strand and G-strand (left and right panels). Colored arrows correspond to telomeric DNA species depicted in schematic. (d) Representative dot blot and quantitation of C-circle assays of U-2 OS cells with or without FANCM depletion. C-circle levels were normalized to the mean of scrambled control. Error bars represent the mean±SEM from n=3 experiments, *p<0.05, **p<0.005, Student's t-test. […] Out of 3 experiments, n≥150 cells scored per treatment, *p<0.05, **p<0.005, Mann-Whitney test. […]

[3] = test system: U-2 OS ALT cells; assay: Metaphase-TIFs after FANCM knockdown with siRNA; format: cell-based, human; conditions: compared to the scrambled control; siRNA 30 nM, 72 h
From the text: as §1

[4] = target: T1, BLM-TOP3A-RMI (BTR) complex (human, UniProt P54132 1-1417; Q13472 1-1001; Q9H9A7 1-625; Q96E14 2-147, limits assumed); assay: competition co-IP: peptide added to HEK-293 Flag-FANCM lysate, Flag IP, TOP3A immunoblot
T1 construct: Endogenous complex in cell lysates (BLM, TOP3A, RMI1, RMI2); In the co-IPs it is read out by TOP3A and/or RMI1 immunoblot
Experimental: For co-IP experiments involved the ER-inducible system, cells were lysed in IP buffer (20 mM Tris-HCl pH 7.5, 100 mM NaCl, 10% (v/v) glycerol, 0.5 mM EDTA, 1 mM DTT) supplemented with 1× mammalian protease inhibitor cocktail (Sigma Aldrich) and 50 U/ml Benzonase (Novagen) for 2 h at 4° C., with or without MM2 peptide variants (Mimotopes). Following lysis, NaCl concentration was increased to 250 mM, then the lysate cleared at 16,000×g for 15 mins. Supernatant was then mixed with 1 μg of α-FANCM (Abcam) or α-ER (Santa Cruz Biotechnology) and 20 μl protein G sepharose (GE Healthcare), or using α-Flag M2 agarose (Sigma Aldrich). Following 3 h of mixing at 4° C., beads were washed 4× with IP buffer, and 1× with 50 mM NH₄(CO₃)₂, 0.5 mM EDTA, then eluted with 500 mM NH₄OH (pH 11.0), 0.5 mM EDTA. Samples were then lyophilized and resuspended in 1×LDS loading buffer (Life Technologies) prior to immunoblotting.
To explore the possibility of specifically targeting ALT cell viability through FANCM, two approaches to disrupt the FANCM-BTR complex were adopted. […] To investigate the effects of FANCM-BTR complex disruption in ALT cells, the MM2 peptide was rendered functionally dependent on tamoxifen by fusion to the C-terminus of the estrogen receptor (MM2-ER) (FIG. 11a). […]

T1 sequence (P54132 whole entry, chain 1 of 4): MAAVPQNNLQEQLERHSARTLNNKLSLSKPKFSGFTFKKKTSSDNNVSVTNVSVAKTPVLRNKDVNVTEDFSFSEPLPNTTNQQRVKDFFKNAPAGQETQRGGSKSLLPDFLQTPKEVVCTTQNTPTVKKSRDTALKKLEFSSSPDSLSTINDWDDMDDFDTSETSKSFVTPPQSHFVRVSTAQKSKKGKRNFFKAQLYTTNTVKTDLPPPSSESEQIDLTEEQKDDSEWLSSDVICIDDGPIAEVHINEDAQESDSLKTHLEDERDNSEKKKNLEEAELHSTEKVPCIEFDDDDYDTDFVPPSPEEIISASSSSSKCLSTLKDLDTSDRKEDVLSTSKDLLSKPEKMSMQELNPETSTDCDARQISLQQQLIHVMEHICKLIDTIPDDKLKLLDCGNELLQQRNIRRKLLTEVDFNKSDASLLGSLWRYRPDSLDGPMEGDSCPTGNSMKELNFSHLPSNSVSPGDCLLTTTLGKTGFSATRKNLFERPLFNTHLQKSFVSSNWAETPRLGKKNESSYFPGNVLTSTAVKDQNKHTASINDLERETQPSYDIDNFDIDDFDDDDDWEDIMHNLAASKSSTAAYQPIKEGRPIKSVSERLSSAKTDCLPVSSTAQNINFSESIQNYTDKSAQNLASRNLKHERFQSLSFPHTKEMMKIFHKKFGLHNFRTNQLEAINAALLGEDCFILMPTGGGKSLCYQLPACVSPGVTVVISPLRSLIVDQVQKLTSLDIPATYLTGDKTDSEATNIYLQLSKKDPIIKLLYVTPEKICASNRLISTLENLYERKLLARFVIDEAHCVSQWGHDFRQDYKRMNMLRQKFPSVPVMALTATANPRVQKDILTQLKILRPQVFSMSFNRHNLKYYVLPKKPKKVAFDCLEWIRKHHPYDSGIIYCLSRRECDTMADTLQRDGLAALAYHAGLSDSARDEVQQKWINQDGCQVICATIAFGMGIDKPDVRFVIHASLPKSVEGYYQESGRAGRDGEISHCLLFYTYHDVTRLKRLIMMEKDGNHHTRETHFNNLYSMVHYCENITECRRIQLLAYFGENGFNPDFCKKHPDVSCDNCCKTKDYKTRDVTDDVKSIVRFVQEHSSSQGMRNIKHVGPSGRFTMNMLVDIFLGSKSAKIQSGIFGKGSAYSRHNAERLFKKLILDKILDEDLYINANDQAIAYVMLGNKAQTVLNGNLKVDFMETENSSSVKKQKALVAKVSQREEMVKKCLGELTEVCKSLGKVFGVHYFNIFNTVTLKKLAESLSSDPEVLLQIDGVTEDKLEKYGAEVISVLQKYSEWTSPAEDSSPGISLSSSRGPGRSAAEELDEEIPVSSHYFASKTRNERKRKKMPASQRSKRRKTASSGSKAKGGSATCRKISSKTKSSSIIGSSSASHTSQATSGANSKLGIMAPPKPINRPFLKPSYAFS
T1 sequence (Q13472 whole entry, chain 2 of 4): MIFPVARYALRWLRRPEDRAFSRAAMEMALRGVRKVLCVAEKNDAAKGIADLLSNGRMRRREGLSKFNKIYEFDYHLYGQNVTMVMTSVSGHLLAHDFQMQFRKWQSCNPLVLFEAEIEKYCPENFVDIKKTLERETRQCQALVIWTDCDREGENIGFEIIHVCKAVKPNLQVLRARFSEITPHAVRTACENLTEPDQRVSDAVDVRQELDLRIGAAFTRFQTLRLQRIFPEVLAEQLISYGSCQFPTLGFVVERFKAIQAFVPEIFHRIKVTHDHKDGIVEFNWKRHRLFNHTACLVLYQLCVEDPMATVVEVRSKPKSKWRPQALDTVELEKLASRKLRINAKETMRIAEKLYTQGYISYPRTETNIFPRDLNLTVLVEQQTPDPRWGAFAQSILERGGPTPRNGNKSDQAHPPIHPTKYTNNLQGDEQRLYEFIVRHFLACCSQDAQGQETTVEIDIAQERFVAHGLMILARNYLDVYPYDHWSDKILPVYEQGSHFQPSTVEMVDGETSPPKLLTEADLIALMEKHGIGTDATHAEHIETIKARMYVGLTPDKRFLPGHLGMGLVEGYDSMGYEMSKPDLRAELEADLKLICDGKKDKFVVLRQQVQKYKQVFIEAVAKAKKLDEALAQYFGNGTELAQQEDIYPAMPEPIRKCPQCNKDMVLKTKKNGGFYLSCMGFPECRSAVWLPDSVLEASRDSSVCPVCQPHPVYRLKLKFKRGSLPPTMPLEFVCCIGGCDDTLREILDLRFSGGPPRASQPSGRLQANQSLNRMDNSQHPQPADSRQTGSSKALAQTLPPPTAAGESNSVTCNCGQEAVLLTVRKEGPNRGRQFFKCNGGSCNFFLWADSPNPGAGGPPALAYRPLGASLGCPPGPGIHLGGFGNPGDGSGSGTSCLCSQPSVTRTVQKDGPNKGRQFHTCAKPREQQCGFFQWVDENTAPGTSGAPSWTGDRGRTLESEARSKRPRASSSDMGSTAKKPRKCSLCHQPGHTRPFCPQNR
T1 sequence (Q9H9A7 whole entry, chain 3 of 4): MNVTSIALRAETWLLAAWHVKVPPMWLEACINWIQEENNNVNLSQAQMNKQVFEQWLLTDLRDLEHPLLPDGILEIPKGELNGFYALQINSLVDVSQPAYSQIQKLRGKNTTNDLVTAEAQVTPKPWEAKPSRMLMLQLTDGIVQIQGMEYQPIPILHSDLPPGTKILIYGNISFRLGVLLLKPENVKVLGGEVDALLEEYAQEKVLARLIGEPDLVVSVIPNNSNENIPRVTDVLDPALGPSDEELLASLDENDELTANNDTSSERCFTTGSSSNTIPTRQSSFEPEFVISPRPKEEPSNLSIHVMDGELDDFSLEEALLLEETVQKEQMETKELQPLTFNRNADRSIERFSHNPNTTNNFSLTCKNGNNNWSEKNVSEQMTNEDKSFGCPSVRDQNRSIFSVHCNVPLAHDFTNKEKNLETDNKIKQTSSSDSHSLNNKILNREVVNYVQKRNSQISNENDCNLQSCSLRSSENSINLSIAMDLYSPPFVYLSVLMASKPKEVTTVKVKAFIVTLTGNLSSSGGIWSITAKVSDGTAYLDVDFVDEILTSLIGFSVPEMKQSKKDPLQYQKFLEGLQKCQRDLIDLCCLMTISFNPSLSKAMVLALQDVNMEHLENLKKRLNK
T1 sequence (Q96E14 2-147 limits assumed, chain 4 of 4): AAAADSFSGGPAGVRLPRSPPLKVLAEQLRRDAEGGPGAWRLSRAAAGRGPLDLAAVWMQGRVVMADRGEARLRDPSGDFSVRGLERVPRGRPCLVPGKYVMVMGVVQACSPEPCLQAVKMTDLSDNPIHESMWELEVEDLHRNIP

For `CC[C@@]1(O)C(=O)OCc2c1cc1n(c2=O)Cc2cc3ccccc3nc2-1` [CPT, Camptothecin], the “BLM TIF frequencies” value ([1]; all samples) was “marginally affected TIF frequencies” and the “nuclear (non-telomeric) BLM foci” value ([1]; siCt-transfected U2OS and HeLa cells, 1 μM camptothecin for 3 hours) was “robust formation of nuclear (non-telomeric) BLM foci”.

In the case of “siFANCM2: Silencer Select siRNA FANCM2 (s33621) (SEQ ID NO: 13) (GAACAUACAUCAGAUAGCA; listed as RNA, chemistry not given here)”, the “G-rich overhang and low molecular weight ss C-rich telomeric DNA (native TRF)” value [2] is reported as “most marked effects” and the “metaphase-TIFs (meta-TIFs)” value [3] is reported as “significant increase in metaphase-TIFs”.

EDIFDCSRDLFSVTADLGACSPDSDDEILEHTSD (also called MM2-FF>AA mutant peptide) [mutant human FANCM MM2 peptide containing the FF>AA mutant]: no binding (tested: 1-50 µM) [4].
